In patent publication US11866466B2, “Tumor homing and cell penetrating peptide-immuno-oncology agent complexes and methods of use thereof” (BLAZE BIOSCIENCE, INC., priority 2017, dated 2024):
{ppp} = triphosphate on the strand's 5' end

Experiments:
STING = details: from Lioux et al.; cited from earlier work
[1] = test system: IFN pathway (JAK/STAT/ISGF3 pathway and/or IRF3 pathway) in SEAP reporter cells; RIG-I; assay: B16-Blue IFN-alpha/beta SEAP reporter cell assay; type: cell-based, murine; details: for luminescence signal (RLU) from activating the IFN pathway: 12 pmol or 120 pmol, 24, 48, or 72 hours, no transfection reagent (FIG. 19); for RLU signal in the presence of transfection reagent: with Lipofectamine transfection reagent (FIG. 22)
A20 lymphoma cells [2] = assay: Intratumoral microinjection in A20 lymphoma tumors, CC3 immunostaining and radial plot analysis; type: in vivo, mouse; details: for CC3 staining (apoptosis) at injection site: 24 hours after administration, complex at 1 μg and 2 μg doses (FIG. 81)
A20 lymphoma cells [3] = assay: Intratumoral microinjection in A20 tumors, IFNb mRNA in situ hybridization (RNAscope); type: in vivo, mouse; details: 4 hours after administration; complex at 1 ug or 2 ug (FIG. 84, FIG. 85)
[4] = test system: CT26 colon carcinoma cells; assay: Intratumoral microinjection in CT26 flank tumors, cleaved caspase 3 (CC3) immunostaining; type: in vivo, mouse
[5] = test system: PHA induced T cell blasts; assay: PHA induced T cell blast proliferation assay (PrestoBlue); type: cell-based, human; details: FIG. 30B; same CD8+ T cell donor
Method: (§1) This example describes in vitro proliferation of cells treated with peptide-IL-15 agent complexes using cytokine dependent CTLL2 (mouse cytotoxic T lymphocyte cell line), Mo7e (human acute megakaryoblastic leukemia cell line) and human primary CD8+ T cells. All assays were performed in the 96 well plate format in clear bottom black walled tissue culture plates. Peptide-I/O complexes comprising SEQ ID NO: 568, peptide-I/O complexes comprising an IL-15 agent, and peptide-I/O complexes comprising a His-tagged RLI control proteins (SEQ ID NO: 1342) were diluted in culture media without cytokine supplement. […]
(§2) CD8+ selected primary human T-cells were received as frozen cells and stored in the LN2 vapor phase until used. […] 15 mL of room temperature 10% FBS RPMI media was added to the cell suspension; the cells were then pelleted, resuspended in 10% FBS media, and counted using the Viacell. […]
(§3) After the end of the incubation period, PrestoBlue live cell assay reagent (Invitrogen) was added to each well (10 μL per 100 μL well). […] Fluorescence was quantified using an Envision (Perkin Elmer 2104) plate reader. Data was graphed and analyzed in Excel, GraphPad Prism 7, or the AAT Bioquest graphing and EC50 calculator https://www.aatbio.com/tools/ec50-calculator.

Mo7e cells = assay: Mo7e proliferation assay (PrestoBlue); type: cell-based, human; details: 3 days incubation (FIG. 29)
Method: as §1
CTLL2 and Mo7e cells were maintained as cell cultures in media containing either IL-2 (CTLL2) or IL-3 (Mo7e). Viability and cell concentration were analyzed using a Viacell cell counter. […]
After the end of the incubation period, PrestoBlue live cell assay reagent (Invitrogen) was added to each well (10 μL per 100 μL well). […] Fluorescence was quantified using an Envision (Perkin Elmer 2104) plate reader. Data was graphed and analyzed in Excel, GraphPad Prism 7, or the AAT Bioquest graphing and EC50 calculator https://www.aatbio.com/tools/ec50-calculator. […]
After the end of the incubation period, PrestoBlue live cell assay reagent (Invitrogen) was added to each well per manufacture instructions. […] PrestoBlue fluorescence was quantified using an Envision (Perkin Elmer 2104) plate reader.

[6] = test system: CD8+ primary human T cells; assay: CD8+ primary human T cell proliferation assay (PrestoBlue); type: cell-based; details: FIG. 30A
Method: as §1, §2, §3

[7] = Tolerability of intraperitoneal peptide-IL-15 agent complexes in CT26 tumor mice; type: in vivo, mouse; details: 1-12 ug in 100 μl, 4 days a week intraperitoneally, 7 doses
Method: This example describes peptide-IL-15 agent complex accumulation in tumors. Peptide-IL-15 agent complexes such as this in example 18 were expressed and purified. Mice were dosed with 0.2 million CT26 cells, which were allowed to grow for 5 days, at which time tumors were palpable. Mice were dosed with 1-12 ug of SEQ ID NO: 1317, SEQ ID NO: 1321, an RLI, or no agent in 100 μl 4 days a week intraperitoneally. […] After 7 doses, the animals were sacrificed and the tumor tissue was harvested and fixed.

3′,2′c-AIMP [Analog 23]
activity relative to 2′,3′-cGAMP (STING): equivalent in activity to 2′,3′-cGAMP

5′ppp dsRNA: SEQ ID NO: 1424 (with triphosphate on the 5′ end) and SEQ ID NO: 1425 (no terminal phosphates) complexed together (chain 1 GCAUGCGACCUCUGUUUGA; chain 2 UCAAACAGAGGUCGCAUGC; chain 1: RNA, 5' {ppp}, backbone and methylation of C not given here; chain 2: RNA, backbone and methylation of C not given here)
luminescence signal (RLU) from activating the IFN pathway [1]: Very little signal | RLU signal in the presence of transfection reagent [1]: high signaling

5′ppp hpRNA: I/O comprising a dsRNA SEQ ID NO: 1371 with a 5′ppp, which forms a hairpin structure (GCAUGCGACCUCUGUUUGAUCAAACAGAGGUCGCAUGC; RNA, 5' {ppp}, backbone and methylation of C not given here; hairpin RNA)
luminescence signal (RLUs) with transfection reagent ([1]; 16.2 pmole, 24 hours, with Lipofectamine (FIG. 80)): High signaling | fraction of cells positive for CC3 staining versus distance from injection site (radial plot) (A20 lymphoma cells [2]; 24 hour timepoint, 7-8 tumors per test article, complex at 1 μg and 2 μg (FIG. 82)): very little increase in CC3 positive cells | CC3 staining (apoptosis) at injection site (A20 lymphoma cells [2]): do not show similarly strong induction of apoptosis | IFNb mRNA staining at injection site (A20 lymphoma cells [3]): significant IFNb mRNA staining

Nc1ncnc2c1ncn2C1OC2COP(=O)(O)OC3C(COP(=O)(O)OC2C1O)OC(n1cnc2c(=O)[nH]cnc21)C3O (stereo not shown) [Analog 9, 3′,3′c-AIMP]
activity relative to 2′,3′-cGAMP (STING): equivalent in activity to 2′,3′-cGAMP

Nc1ncnc2c1ncn2C1OC2COP(=O)(O)O[C@@H]3C(COP(=O)(O)O[C@@H]1[C@@H]2O)OC(n1cnc2c(=O)[nH]cnc21)[C@@H]3O (stereo partly shown) [Analog 10, 2′,3′c-AIMP]
activity relative to 2′,3′-cGAMP (STING): equivalent in activity to 2′,3′-cGAMP

Nc1ncnc2c1ncn2C1C[C@@H]2OP(=O)(O)OCC3OC(n4cnc5c(=O)[nH]cnc54)C[C@@H]3OP(=O)(O)OCC2O1 (stereo partly shown) [Analog 51, c-(dAMP-dIMP)]
activity relative to 2′,3′-cGAMP (STING): equivalent in activity to 2′,3′-cGAMP

Nc1ncnc2c1ncn2C1OC2COP(=O)(O)O[C@@H]3C(COP(=O)(O)O[C@H]2[C@H]1F)OC(n1cnc2c(=O)[nH]cnc21)[C@@H]3F (stereo partly shown) [Analog 52, c-(2′FdAMP-2′FdIMP)]
activity relative to 2′,3′-cGAMP (STING): more potent than 2′,3′-cGAMP

Nc1ncnc2c1ncn2C1OC2COP(=O)(O)OC3CC(n4cnc5c(=O)[nH]cnc54)OC3COP(=O)(O)OC2C1F (stereo not shown) [Analog 54, c-(2′FdAMP-dIMP)]
activity relative to 2′,3′-cGAMP (STING): equivalent in activity to 2′,3′-cGAMP

Nc1ncnc2c1ncn2C1C[C@@H]2OP(=O)(O)OCC3OC(n4cnc5c(=O)[nH]cnc54)[C@H](F)[C@@H]3OP(=O)(O)OCC2O1 (stereo partly shown) [Analog 55, c-(dAMP-2′FdIMP)]
activity relative to 2′,3′-cGAMP (STING): equivalent in activity to 2′,3′-cGAMP

Nc1ncnc2c1ncn2C1OC2COP(=O)(S)OC3CC(n4cnc5c(=O)[nH]cnc54)OC3COP(=O)(S)OC2C1F (stereo not shown) [Analog 56, c-[2′FdAM(PS)-dIM(PS)]]
activity relative to 2′,3′-cGAMP (STING): more potent than 2′,3′-cGAMP

Cc1ccc2c(=O)c3cccc(CC(=O)O)c3oc2c1C [DMXAA]
CC3 staining (apoptosis) at injection site (A20 lymphoma cells [2]): do not show similarly strong induction of apoptosis

CCN(CC)CCCC(C)Nc1ccnc2cc(Cl)ccc12 (stereo not shown) [chloroquine]
CC3 staining (apoptosis) at injection site ([4]; 4 hours post-treatment (FIG. 16)): did not have a significant region of CC3 staining | CC3 staining (apoptosis) at injection site ([4]; 24 h, other animals tested): One animal showed CC3 staining

SEQ ID NO: 1342: His-tagged RLI protein comprising SEQ ID NO: 1169, SEQ ID NO: 1176 (IL-15Ra sushi+) and SEQ ID NO: 1177 (IL-15)
cytokine activity, proliferation [5]: stimulate human CD8+ T cells | cytokine activity, proliferation (Mo7e cells): stimulate Mo7e cells | cytokine activity, proliferation [6]: stimulate human CD8+ T cells | tolerability of treatments [7]: well tolerated

c-[2′FdAMP(S)-2′FdIMP(S)] [Analog 53]
activity relative to 2′,3′-cGAMP (STING): more potent than 2′,3′-cGAMP

cAIM(PS)2 [Analog 13]
activity relative to 2′,3′-cGAMP (STING): more potent than 2′,3′-cGAMP

dsRNA: SEQ ID NO: 1424 and SEQ ID NO: 1425 (no terminal phosphates on either strand) complexed together (chain 1 GCAUGCGACCUCUGUUUGA; chain 2 UCAAACAGAGGUCGCAUGC; RNA, backbone and methylation of C not given here; further chemistry not fully specified)
luminescence signal (RLU) from activating the IFN pathway [1]: Very little signal | RLU signal in the presence of transfection reagent [1]: much lower signaling
